Measured values as given in patent US7894880B2, “Measurement of renal extraction fraction using contrast enhanced computed tomography” (The Board of Trustees of the Leland Stanford Junior …, priority 2003, dated 2011).
Several values for one entry are separate records, joined by “and”; a condition that tells them apart may be missing. Equal values may be shown once.

Assay: Renal extraction fraction by contrast enhanced CT after iohexol injection (retrospective study)
Assay type: in vivo, adult patients
Excerpt: [formula] where CA is the concentration of a filtration marker in the systemic arterial blood entering the kidney, and CV is the corresponding concentration in the renal venous blood. Standard radiographic contrast agents, including iothalamate and iohexol, may be used as filtration markers since they are freely filtered by the kidney, and neither secreted nor reabsorbed. Assuming linear increase in CT number with concentration of contrast agent, CA will be proportional to the increase in CT number of the systemic arterial blood following contrast injection, or CTA-CTPRE, where CTPRE and CTA are the pre- and post- contrast CT numbers of the systemic arterial blood. Similarly, CTV will be proportional to CTV-CTPRE, where CTV is the post-contrast CT number of a renal vein. Substituting into equation [1] yields: […]
In a retrospective study, CT scans of 10 adult patients (mean age 58.1 years, 7 female) having no known renal disease, and one patient with unilateral renal obstruction were studied. All patients had precontrast scans followed by injection of 120 ml. of iohexol (Omnipaque 350, Amersham Health, Princeton, N.J.) at 2 ml/sec., and enhanced scans through the kidney vasculature, delayed for 3 to 5 minutes after the end of the contrast injection. CT section thickness varied from 2.5 mm to 5 mm. Pre- and post-contrast delayed images were evaluated using ROI measurements taken within the abdominal aorta in the region of the renal vessels, and within right and left renal veins. Multiple measurements, one from each of several axial scans, within each vessel were obtained, varying from 2 to 4 measurements for each renal vein, and 4-8 measurements for the abdominal aorta. Mean CT number values were subsequently computed for each vessel. EF values for the right and left kidneys in each subject were then computed for each patient using equation [2] above. Propagation of error was used to estimate the standard deviation in the computed EF values, as expressed in:
[formula] where σ^2CTA, σ^2CTV, and σ^2CTPRE are the variances in the mean values for each region.

[1] = 10 patients with no history of renal disease, weighted by the inverse of the variance
[2] = individual normal subjects (no known renal disease), one line per patient, 120 ml iohexol at 2 ml/sec, scans delayed 3 to 5 minutes after injection
[3] = patient with unilateral renal obstruction

CC(=O)N(CC(O)CO)c1c(I)c(C(=O)NCC(O)CO)c(I)c(C(=O)NCC(O)CO)c1I (stereo not drawn) [iohexol]
Left renal EF, weighted mean ± SD [1]: 12.3±1.3% | Right renal EF, weighted mean ± SD [1]: 12.6±1.0% | Left Renal EF (calculated extraction fraction ± s.d.) [2]: 7.7 ± 6.3% and 9.1 ± 1.5% and 7.8 ± 2.6% and 21.1 ± 1.7% and 22.2 ± 3.0% and 8.3 ± 1.9% and 17.7 ± 4.7% and 8 ± 3.2% and 7.7 ± 3.1% and 7.7 ± 5.3% | Right Renal EF (calculated extraction fraction ± s.d.) [2]: 8.3 ± 9.6% and 16.2 ± 11.6% and 7.6 ± 1.6% and 16.8 ± 3.4% and 16.7 ± 2.2% and 8 ± 5.4% and 16.2 ± 4.6% and 10.6 ± 4.5% and 18.8 ± 2.8% and 13.3 ± 3.1% | EF in the obstructed left kidney [3]: 9.7±4.0% | EF in the unobstructed right kidney [3]: 29.6±5.6%
